PubChem BioAssay AID588341 (The Scripps Research Institute Molecular Screening Center, 2011)
The source made the active and inactive calls. No rule for the calls is given here.

Molecular target: Beta-lactamase (reporter enzyme, TEM-1 type bla) (UniProt Q932Y6)
Assay: beta-lactamase reporter inhibitor potency, dose response, artefact control for TLR9-MyD88 binding inhibitor project, BLA reporter cells, FRET fluorescence (AID 588341)
Settings: BLA reporter cell line, FRET fluorescence inhibition

Beta-lactamase (reporter enzyme, TEM-1 type bla), sequence (Q932Y6 1-286): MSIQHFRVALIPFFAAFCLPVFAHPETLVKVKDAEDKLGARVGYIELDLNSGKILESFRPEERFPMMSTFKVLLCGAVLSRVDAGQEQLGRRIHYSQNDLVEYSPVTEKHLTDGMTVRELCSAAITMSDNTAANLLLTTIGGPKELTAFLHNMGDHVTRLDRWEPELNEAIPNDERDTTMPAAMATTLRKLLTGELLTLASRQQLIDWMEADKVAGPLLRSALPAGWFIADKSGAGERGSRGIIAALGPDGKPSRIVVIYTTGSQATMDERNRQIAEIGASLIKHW

Q: For COc1cc(/C=C/C(=O)/C=C(O)/C=C/c2ccc(O)c(OC)c2)ccc1O, which IC50 is on record?
A: inactive
